The test system of data set [1] is X. fastidiosa subsp. fastidiosa IVIA 5387.2. It is filed as cell-based, Xylella fastidiosa. Particulars: for Biofilm formation Level (antibiofilm activity) / Planktonic cells Ratio (treatment/NTC) / Biofilm formation Ratio (treatment/NTC): 50 µM.
The subject of data set [2] is X. fastidiosa subsp. fastidiosa Temecula (ATCC 700964). It is filed as cell-based, Xylella fastidiosa. Particulars: 50 μM; strain Temecula; OD595 crystal violet, 28°C, 5 days; three replicates of 10 wells ± confidence interval; listed as NAC.
Data set [3] deals with X. fastidiosa subsp. fastidiosa IVIA 5770. It is filed as cell-based, Xylella fastidiosa. Particulars: 50 μM; strain IVIA 5770; OD595 crystal violet, 28°C, 5 days; three replicates of 10 wells ± confidence interval; listed as NAC.
Data set [4] has as its system X. fastidiosa subsp. pauca DD1. It is filed as cell-based, Xylella fastidiosa. Particulars: 50 μM; strain DD1; OD595 crystal violet, 28°C, 5 days; three replicates of 10 wells ± confidence interval; listed as NAC.
In data set [5] the test system is X. fastidiosa subsp. multiplex CFBP 8173. It is filed as cell-based, Xylella fastidiosa. Particulars: 50 μM; strain CFBP 8173; OD595 crystal violet, 28°C, 5 days; three replicates of 10 wells ± confidence interval; listed as NAC.
Data set [6] relates to X. fastidiosa subsp. multiplex IVIA 5901.2. It is filed as cell-based, Xylella fastidiosa. Particulars: 50 μM; strain IVIA 5901.2; OD595 crystal violet, 28°C, 5 days; three replicates of 10 wells ± confidence interval; listed as NAC.
In data set [7] the test system is X. fastidiosa subsp. fastidiosa IVIA 5387.2. Particulars: 50 µM.
Data set [8] has the same test system.
For data set [9], the system named is Gram-negative bacteria. Particulars: cited from earlier work.
Data set [10] relates to Gram-negative bacteria. Particulars: cited from earlier work. The source holds these as a separate data set.
Data set [11] has as its system several X. fastidiosa strains. Particulars: 12.5 μM; cited from earlier work.

Several values for one entry are separate records, joined by “and”; a condition that tells them apart may be missing. Equal entries are not always repeated. Where two headings read alike, the source gives them in different places. Peptide text beside a SMILES is read from it.

`CC(=O)N[C@@H](CS)C(=O)O` [N-Acetyl-L-cysteine, N-acetyl-L-cysteine]: the “Biofilm formation Level (antibiofilm activity)” value in data set [1] is on record as “Low (low activity (ratio from 0.72 to 0.77))”. In [1] (OD600 treated / non-treated, PD3, 96-well, 28°C, 5 days, 120 rpm, three replicates of 10 wells ± confidence interval (α=0.05)), the “Planktonic cells Ratio (treatment/NTC)” value turned out to be 1.71 ± 0.03. For the same compound, in [1] (crystal violet OD595 treated / non-treated, PD3, 96-well, 28°C, 5 days, 120 rpm, three replicates of 10 wells ± confidence interval (α=0.05)), the “Biofilm formation Ratio (treatment/NTC)” value was 0.72 ± 0.01. Also, the “Biofilm formation (Ratio T/NTC)” value in data set [1] (50 μM, strain IVIA 5387.2, OD595 crystal violet, 28°C, 5 days, three replicates of 10 wells ± confidence interval, listed as NAC) is 0.72 and 0.72 ± 0.01 b; in [2] it was 0.94 ± 0.02 c; in data set [3], 0.97; in data set [4] it was 0.42 and 0.42 ± 0.05 a; in [5], 0.99; in data set [6] it was 1.00 ± 0.04 days. In addition, in data set [7] (class by Duncan's test groups), the “Bactericidal activity: Level” value is listed as “Very low (very low activity with less than 0.3 log)”. For the same compound, in [7] (contact test 3 h at room temperature in SCP buffer, v-qPCR with PMAxx, N0 = 10^7 CFU/mL non-treated control, mean of three replicates ± confidence interval (α=0.05)), the “Bactericidal activity: Reduction in viability (Log N0/N)” value amounted to 0.12 ± 0.01 Log N0/N. Further, the Hemolysis in the data set with horse erythrocytes (150 µM) was 0.5 ± 0.9%; in the data set on horse erythrocytes (250 µM), 0.7 ± 1.1%; with horse erythrocytes (375 µM), 1 ± 2%.

With `CC[C@H](C)[C@H](NC(=O)[C@H](CCCCN)NC(=O)[C@H](CCCCN)NC(=O)[C@H](CC(C)C)NC(=O)[C@@H](NC(=O)[C@H](CCCNC(=N)N)NC(=O)[C@@H](NC(=O)[C@H](CCCNC(=N)N)NC(=O)[C@@H](NC(=O)[C@H](CCCNC(=N)N)NC(=O)[C@H](Cc1ccccc1)NC(=O)[C@H](CC(C)C)NC(=O)[C@H](CCCNC(=N)N)NC(=O)[C@H](CCCNC(=N)N)NC(=O)[C@H](Cc1ccccc1)NC(=O)[C@@H](N)CCCNC(=N)N)[C@@H](C)CC)C(C)C)C(C)C)C(N)=O` [R-FV7-I16] (H-RFRRLFRIRVRVLKKI-NH2; N-terminus assumed), in data set [1], the “Biofilm formation Level (antibiofilm activity)” value is given as “High (key: High: high antibiofilm activity (ratio of biofilm formation from 0.01 to 0.2); Moderate: moderate activity (ratio from 0.29 to 0.47); Low: low activity (ratio from 0.72 to 0.77))”, the “Biofilm formation Ratio (treatment/NTC)” value stood at 0.10 ± 0.01 and the “Planktonic cells Ratio (treatment/NTC)” value came to 1.70 ± 0.12. In addition, the “Bactericidal activity: Reduction in viability (Log N0/N)” value in [7] was 0.39 ± 0.01 Log N0/N. Besides, the “ED50 (median effective dose, biofilm inhibition)” value in data set [8] is 6.3 ± 3.7 µM. The “Bimax (maximum biofilm inhibition)” value in data set [8] (50 µM) stood at 90.6%. The compound further had a Hemolysis with horse erythrocytes (150 µM) of 6.3 ± 0.3%. Moreover, in the data set with horse erythrocytes (250 µM), the Hemolysis was 8.0 ± 1.3%. In addition, the Hemolysis in the data set with horse erythrocytes (375 µM) came to 9.7 ± 0.6%. For the same compound, in the data set with Gram-negative bacteria [9], the “Described activity: Antibacterial” value was “Ec, Pa, Se”. Further, the “Described activity: Antibiofilm” value in the data set with Gram-negative bacteria [10] is “Ec, Pa”.

For the compound BP178, the reduction in viability result in data set [11] is “approximately 3.6 log”.

The values above are taken from publication PMC8606745 (Frontiers in Microbiology, 2021).
